Laboratory results as given in PMC11352469, “Comprehensive Analysis of Kisspeptin Signaling: Effects on Cellular Dynamics in Cervical Cancer” (Biomolecules, 2024).
Residues, ends and D or L forms follow the SMILES beside them.

How the values were obtained:
[1] = tested on: MCF7 cells; experiment: Cytotoxicity MTT assay, MCF7; format: cell-based, human; details: 48 h
Method: Human cervical adenocarcinoma (HeLa) cells (cat# CRM-CCL-2) were obtained from the American Type Culture Collection (ATCC, Manassas, VA, USA). Human breast adenocarcinoma (MCF7) cells, Human prostate adenocarcinoma (PC3) cells, Human gastric adenocarcinoma (AGS) cells and Human Embryonic Kidney cells (HEK293T) were kindly provided by the Universidad Industrial de Santander. HeLa, MCF7, and HEK293T cells were cultured in DMEM medium supplemented with 10% FBS (fetal bovine serum), 1% penicillin/streptomycin. PC3 and AGS cells were cultured in RPMI medium supplemented with 10% FBS, 1% penicillin/streptomycin. All cells were maintained at 37 °C and 5% CO2.
15,000 cells per well were plated in 96-well plates (Greiner, Fisher Scientific, Waltham, MA, USA) using a fully complemented medium, and incubated at 37 °C. Following a 24 h period, cells underwent serum starvation before being treated with KP10 and its analogs at concentrations of 10, 100, 250, and 500 nM for 48 h. Subsequently, each well received 100 µL of MTT solution (0.5 mg/mL), and the plates were incubated at 37 °C for 3 h. After adding the MTT solvent and further incubation for 15 min, the resultant absorbance was measured at 590 nm using a BioTech RT-2100C microplate reader. Data analysis was performed using Prism 8.0 software (GraphPad).

[2] = target: T1, kisspeptin receptor (Homo sapiens, UniProt Q969F8); experiment: BRET assay, Gq pathway; format: cell-based; design: expressed in transfected cells; host or cells: HeLa cells, transient transfection with PEI
T1 sequence (Q969F8 whole entry, the tested form may be a part): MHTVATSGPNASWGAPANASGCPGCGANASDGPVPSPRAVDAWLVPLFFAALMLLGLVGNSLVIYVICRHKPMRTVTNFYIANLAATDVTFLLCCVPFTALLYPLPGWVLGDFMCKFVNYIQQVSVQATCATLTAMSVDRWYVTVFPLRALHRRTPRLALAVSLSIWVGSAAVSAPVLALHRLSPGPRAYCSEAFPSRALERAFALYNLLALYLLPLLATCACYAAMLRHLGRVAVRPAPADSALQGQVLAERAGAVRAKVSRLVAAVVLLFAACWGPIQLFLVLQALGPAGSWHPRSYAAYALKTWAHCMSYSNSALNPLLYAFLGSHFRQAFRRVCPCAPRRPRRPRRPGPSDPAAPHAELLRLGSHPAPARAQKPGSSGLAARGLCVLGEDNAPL
From the text: (§1) The Bioluminescence Resonance Energy Transfer (BRET) assay was developed as described before. Briefly, HeLa cells were transiently transfected with these plasmids encoding for the GPCR, Gα subunit, the G protein effectors tagged with the BRET donor (RlucII), and the plasma membrane anchor (the CAAX motif from KRas, which includes a prenylation and a polybasic domain) fused to the BRET acceptor rGFP using Polietilendiimine (PEI) as described in Avet et al.. Fourty-eight hours post-transfection, cells were incubated with the coelenterazine substrate for Renilla luciferase Prolume Purple, stimulated with kisspeptin receptor agonists for 10 min and BRET signals were measured using a dual-filter luminometer (SPARK, Tecan Life Sciences, Männedorf, Switzerland). BRET ratios were calculated by dividing the acceptor emission by the donor emission, providing a quantitative measure for […]. Data were analyzed using Prism 8.0 (GraphPad) to determine interaction dynamics under various experimental conditions.

[3] = target: T1, kisspeptin receptor; experiment: BRET assay, G11 pathway; format: cell-based; design: expressed in transfected cells; host or cells: HeLa cells, transient transfection with PEI
From the text: as §1

[4] = target: T1, kisspeptin receptor; experiment: BRET assay, G14 pathway; format: cell-based; design: expressed in transfected cells; host or cells: HeLa cells, transient transfection with PEI
From the text: as §1

[5] = target: T1, kisspeptin receptor; experiment: BRET assay, G15 pathway; format: cell-based; design: expressed in transfected cells; host or cells: HeLa cells, transient transfection with PEI
From the text: as §1

[6] = target: T1, kisspeptin receptor; experiment: BRET assay, Gz pathway; format: cell-based; design: expressed in transfected cells; host or cells: HeLa cells, transient transfection with PEI
From the text: as §1, with “conditions. The bias factor for the kisspeptin analogs was calculated using the operational model of agonism as described by Kenakin [31]. Emax and EC50 values were determined for each signaling pathway (e.g., G protein activation, β-arrestin recruitment). The data were then fitted to the operational model to estimate transduction coefficients (τ). The bias factor (ΔLog(τ/KA)) was calculated by comparing the τ/KA values for each pathway relative to a reference pathway. This method quantifies signaling bias by evaluating relative efficacy and potency across pathways. Statistical significance of the observed bias was assessed to ensure the differences were not due to random variation. All calculations and analyses were performed using GraphPad Prism software (GraphPad, San Diego, CA, USA).” for “conditions.”

[7] = target: T1, kisspeptin receptor; experiment: BRET assay, β-arrestin1 recruitment; format: cell-based; design: expressed in transfected cells; host or cells: HeLa cells, transient transfection with PEI
From the text: as §1

[8] = target: T1, kisspeptin receptor; experiment: BRET assay, β-arrestin2 recruitment; format: cell-based; design: expressed in transfected cells; host or cells: HeLa cells, transient transfection with PEI
From the text: as §1

Q: Which results are given for `CC(C)C[C@H](NC(=O)CNC(=O)[C@H](Cc1ccccc1)NC(=O)[C@H](CO)NC(=O)[C@H](CC(N)=O)NC(=O)[C@H](C)NC(=O)[C@H](CC(N)=O)NC(=O)[C@@H](N)Cc1ccc(O)cc1)C(=O)N[C@@H](CCCNC(=N)N)C(=O)N[C@@H](Cc1ccccc1)C(N)=O` [Ala^3-KP10] (H-YNANSFGLRF-NH2; N-terminus assumed)?
A: pIC50 MCF7 [1]: 2.624; EC50 ([2]; HeLa cells, Gq pathway): 85.1 nM; Emax ([2]; HeLa cells, Gq pathway, KP10 = 100%): 107%; Fc Gq ([2]; fold change of EC50 relative to KP10, Gq pathway): 5.76; Emax ([3]; HeLa cells, G11 pathway, KP10 = 100%): 102%; EC50 ([3]; HeLa cells, G11 pathway, read-out: pEC50 G11 (converted)): 209 nM; Fc G11 ([3]; fold change of EC50 relative to KP10, G11 pathway): 4.65; Emax ([4]; HeLa cells, G14 pathway, KP10 = 100%): 100%; EC50 ([4]; HeLa cells, G14 pathway, read-out: pEC50 G14 (converted)): 166 nM; Fc G14 ([4]; fold change of EC50 relative to KP10, G14 pathway): 4.28; Emax ([5]; HeLa cells, G15 pathway, KP10 = 100%): 99.5%; EC50 ([5]; HeLa cells, G15 pathway, read-out: pEC50 G15 (converted)): 135 nM; Fc G15 ([5]; fold change of EC50 relative to KP10, G15 pathway): 4.92; Emax ([6]; HeLa cells, Gz pathway, KP10 = 100%): 94%; EC50 ([6]; HeLa cells, Gz pathway, mean of 4 experiments, read-out: EC50(M) Gz): 6.46e-07 M; EC50 ([6]; HeLa cells, Gz pathway, read-out: pEC50 Gz (converted)): 5.75e-07 M; Fc Gz ([6]; fold change of EC50 relative to KP10, Gz pathway): 3.96; Δ(logτ/KA) bias factor, Gαz pathway ([6]; operational model, KP10 as reference, HeLa cells): −0.7; Emax ([7]; HeLa cells, β-arrestin1 recruitment, KP10 = 100%): 69%; EC50 ([7]; HeLa cells, β-arrestin1 recruitment, mean of 4 experiments): 1190 nM; Fc β-arrestin1 ([7]; fold change of EC50 relative to KP10, β-arrestin1): 2.01; Emax ([8]; HeLa cells, β-arrestin2 recruitment, KP10 = 100%): 63.9%; EC50 ([8]; HeLa cells, β-arrestin2 recruitment, mean of 4 experiments, read-out: EC50(M) β-arrestin2): 1.43e-06 M; EC50 ([8]; HeLa cells, β-arrestin2 recruitment, read-out: pEC50 β-arrestin2 (converted)): 1e-06 M; Fc β-arrestin2 ([8]; fold change of EC50 relative to KP10, β-arrestin2): 3.82
